Reference: ChEMBL document CHEMBL3044937, “Design, synthesis and acaricidal activity of novel strobilurin derivatives containing pyrimidine moieties” (2010)

Legend:
Type in all cases: functional
[1] = test system: Tetranychus cinnabarinus; experiment: Acaricidal activity against Tetranychus cinnabarinus (carmine spider mite) infected kidney bean leaf assessed as mortality at 40 mg/l measured after 48 hr in greenhouse conditions relative to control
[2] = test system: Tetranychus cinnabarinus; experiment: Acaricidal activity against Tetranychus cinnabarinus (carmine spider mite) infected kidney bean leaf assessed as mortality at 600 mg/l measured after 48 hr in greenhouse conditions relative to control
[3] = test system: Tetranychus cinnabarinus; experiment: Acaricidal activity against Tetranychus cinnabarinus (carmine spider mite) infected kidney bean leaf assessed as mortality at 10 mg/l measured after 48 hr in greenhouse conditions relative to control
[4] = test system: Tetranychus cinnabarinus; experiment: Acaricidal activity against Tetranychus cinnabarinus (carmine spider mite) infected kidney bean plant assessed as mortality at 50 g a.i./ha measured after 14 days in field conditions relative to control; conditions: 336 h
[5] = test system: Tetranychus cinnabarinus; experiment: Acaricidal activity against Tetranychus cinnabarinus (carmine spider mite) infected kidney bean plant assessed as mortality at 100 g a.i./ha measured after 14 days in field conditions relative to control; conditions: 336 h
[6] = test system: Tetranychus cinnabarinus; experiment: Acaricidal activity against Tetranychus cinnabarinus (carmine spider mite) infected kidney bean plant assessed as mortality at 50 g a.i./ha measured after 7 days in field conditions relative to control; conditions: 168 h
[7] = test system: Tetranychus cinnabarinus; experiment: Acaricidal activity against Tetranychus cinnabarinus (carmine spider mite) infected kidney bean plant assessed as mortality at 100 g a.i./ha measured after 3 days in field conditions relative to control; conditions: 72 h
[8] = test system: Tetranychus cinnabarinus; experiment: Acaricidal activity against Tetranychus cinnabarinus (carmine spider mite) infected kidney bean plant assessed as mortality at 200 g a.i./ha measured after 21 days in field conditions relative to control; conditions: 504 h
[9] = test system: Tetranychus cinnabarinus; experiment: Acaricidal activity against Tetranychus cinnabarinus (carmine spider mite) infected kidney bean plant assessed as mortality at 200 g a.i./ha measured after 14 days in field conditions relative to control; conditions: 336 h
[10] = test system: Tetranychus cinnabarinus; experiment: Acaricidal activity against Tetranychus cinnabarinus (carmine spider mite) infected kidney bean plant assessed as mortality at 50 g a.i./ha measured after 3 days in field conditions relative to control; conditions: 72 h
[11] = test system: Tetranychus cinnabarinus; experiment: Acaricidal activity against Tetranychus cinnabarinus (carmine spider mite) infected kidney bean plant assessed as mortality at 50 g a.i./ha measured after 21 days in field conditions relative to control; conditions: 504 h
[12] = test system: Tetranychus cinnabarinus; experiment: Acaricidal activity against Tetranychus cinnabarinus (carmine spider mite) infected kidney bean plant assessed as mortality at 100 g a.i./ha measured after 7 days in field conditions relative to control; conditions: 168 h
[13] = test system: Tetranychus cinnabarinus; experiment: Acaricidal activity against Tetranychus cinnabarinus (carmine spider mite) infected kidney bean plant assessed as mortality at 200 g a.i./ha measured after 3 days in field conditions relative to control; conditions: 72 h
[14] = test system: Tetranychus cinnabarinus; experiment: Acaricidal activity against Tetranychus cinnabarinus (carmine spider mite) infected kidney bean plant assessed as mortality at 200 g a.i./ha measured after 7 days in field conditions relative to control; conditions: 168 h
[15] = test system: Tetranychus cinnabarinus; experiment: Acaricidal activity against Tetranychus cinnabarinus (carmine spider mite) infected kidney bean plant assessed as mortality at 100 g a.i./ha measured after 21 days in field conditions relative to control; conditions: 504 h

SMILES | mortality at 40 µg/mL [1] [%] | mortality at 600 µg/mL [2] [%] | mortality at 10 µg/mL [3] [%] | other results
CO/C=C(/C(=O)OC)c1ccccc1COc1cc(C)nc(Nc2ccccc2)n1 | 0 | 90 | 0 | –
CO/N=C(/C(=O)OC)c1ccccc1COc1cc(C(F)(F)F)nc(Nc2ccccc2)n1 | 0 | 100 | 0 | –
CO/C=C(/C(=O)OC)c1ccccc1COc1cc(C(F)(F)F)nc(N(C)C)n1 | 0 | – | 0 | –
CO/C=C(/C(=O)OC)c1ccccc1COc1cc(C(F)(F)F)nc(NC(C)C)n1 | 95 | – | 64 | –
CNC(=O)N(OC)c1ccccc1COc1cc(C(F)(F)F)nc(Nc2ccccc2)n1 | 0 | 0 | 0 | –
CO/C=C(/C(=O)OC)c1ccccc1COc1cc(C(F)(F)F)nc(N2CCCCC2)n1 | 0 | – | 0 | –
CO/C=C(/C(=O)OC)c1ccccc1COc1cc(C(F)(F)F)nc(Nc2ccccc2)n1 | 100 | 100 | 85 | mortality at 50 g/ha [4]: 87.2%; mortality at 100 g/ha [5]: 91.8%; mortality at 50 g/ha [6]: 65.3%; mortality at 100 g/ha [7]: 78.3%; mortality at 200 g/ha [8]: 100%; mortality at 200 g/ha [9]: 100%; mortality at 50 g/ha [10]: 62.3%; mortality at 50 g/ha [11]: 57.5%; mortality at 100 g/ha [12]: 53.1%; mortality at 200 g/ha [13]: 92.2%; mortality at 200 g/ha [14]: 96.4%; mortality at 100 g/ha [15]: 94.9%
CCNc1nc(OCc2ccccc2/C(=C\OC)C(=O)OC)cc(C(F)(F)F)n1 | 0 | – | 0 | –
CNC(=O)/C(=N/OC)c1ccccc1COc1cc(C(F)(F)F)nc(Nc2ccccc2)n1 | 0 | 0 | 0 | –
CO/C=C(/C(=O)OC)c1ccccc1COc1cc(C(F)(F)F)nc(NCc2ccccc2)n1 | 65 | – | 28 | –
CCN(CC)c1nc(OCc2ccccc2/C(=C\OC)C(=O)OC)cc(C(F)(F)F)n1 | 65 | – | 21 | –
CO/C=C(/C(=O)OC)c1ccccc1COc1cc(C2CC2)nc(Nc2ccccc2)n1 | 0 | 90 | 0 | –
CO/C=C(/C(=O)OC)c1ccccc1COc1cc(C(F)(F)F)nc(NC2CC2)n1 | 0 | – | 0 | –
COC(=O)N(OC)c1ccccc1COc1cc(C(F)(F)F)nc(Nc2ccccc2)n1 | 0 | 0 | 0 | –
CNc1nc(OCc2ccccc2/C(=C\OC)C(=O)OC)cc(C(F)(F)F)n1 | 0 | – | 0 | –
CO/C=C(/C(=O)OC)c1ccccc1COc1cc(C(F)(F)F)nc(N2CCOCC2)n1 | 70 | – | 0 | –
CO/C=C(/C(=O)OC)c1ccccc1COc1cc(C(F)(F)F)nc(NCc2ccccc2Cl)n1 | 81 | – | 32 | –
CO/C=C(/C(=O)OC)c1ccccc1COc1nc(Nc2ccccc2)nc(C)c1C | 0 | 0 | 0 | –
CO/C=C(/C(=O)OC)c1ccccc1COc1cc(C(F)(F)F)nc(NC2CCCCC2)n1 | 100 | – | 70 | –
CO/C=C(/C(=O)OC)c1ccccc1COc1cc(C(F)(F)F)nc(OC(C)C)n1 | 100 | 100 | 95 | mortality at 50 g/ha [4]: 93.2%; mortality at 100 g/ha [5]: 90.4%; mortality at 50 g/ha [6]: 77.6%; mortality at 100 g/ha [7]: 100%; mortality at 50 g/ha [10]: 100%; mortality at 50 g/ha [11]: 98.2%; mortality at 100 g/ha [12]: 88%; mortality at 100 g/ha [15]: 97.9%
